Measurements reported in patent US20240109865A1, “INDAZOLE COMPOUNDS AS KINASE INHIBITORS” (TYRA BIOSCIENCES, INC., priority 2020, published 2024).

Assays:
Test in all cases: Kinase assay, binding constants (Kd), kinase-tagged T7 phage, qPCR
[1] = biological target: FGFR1 (Homo sapiens (Human), UniProt P11362)
Procedure, shortened: (§1)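 Using T7 phage lysates from BL21-derived E. coli, compounds at 0.9% final DMSO competed for kinase binding to ligand-bearing magnetic beads. After elution, qPCR measured remaining kinase, and Kds were fitted by non-linear least squares with the Hill slope fixed at −1.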

[2] = biological target: FGFR2 (Homo sapiens (Human), UniProt P21802)
FGFR2, sequence (P21802 22-821): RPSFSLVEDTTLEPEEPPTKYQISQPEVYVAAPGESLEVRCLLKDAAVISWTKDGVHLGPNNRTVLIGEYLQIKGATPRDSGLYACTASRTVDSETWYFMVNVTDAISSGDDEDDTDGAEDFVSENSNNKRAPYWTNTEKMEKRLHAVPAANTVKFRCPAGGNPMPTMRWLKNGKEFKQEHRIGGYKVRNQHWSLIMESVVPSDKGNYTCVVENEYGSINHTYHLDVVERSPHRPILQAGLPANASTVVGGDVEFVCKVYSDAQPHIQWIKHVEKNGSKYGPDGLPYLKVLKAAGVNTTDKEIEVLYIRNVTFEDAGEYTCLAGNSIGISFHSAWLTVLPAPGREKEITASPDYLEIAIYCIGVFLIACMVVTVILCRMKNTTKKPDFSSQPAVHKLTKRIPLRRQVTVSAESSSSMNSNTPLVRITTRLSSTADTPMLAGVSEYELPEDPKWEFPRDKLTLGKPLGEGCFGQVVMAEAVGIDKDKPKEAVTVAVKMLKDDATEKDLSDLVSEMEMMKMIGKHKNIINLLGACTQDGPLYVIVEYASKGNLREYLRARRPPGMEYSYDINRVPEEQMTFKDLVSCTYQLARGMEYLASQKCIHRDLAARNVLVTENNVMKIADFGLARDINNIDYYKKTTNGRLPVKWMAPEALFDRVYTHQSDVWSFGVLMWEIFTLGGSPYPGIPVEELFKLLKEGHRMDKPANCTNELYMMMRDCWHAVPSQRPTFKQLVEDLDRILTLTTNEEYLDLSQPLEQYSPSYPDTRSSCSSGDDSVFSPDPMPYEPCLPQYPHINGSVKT
Procedure, shortened: as §1

[3] = biological target: FGFR3 (Homo sapiens (Human), UniProt P22607)
FGFR3, sequence (P22607 23-806): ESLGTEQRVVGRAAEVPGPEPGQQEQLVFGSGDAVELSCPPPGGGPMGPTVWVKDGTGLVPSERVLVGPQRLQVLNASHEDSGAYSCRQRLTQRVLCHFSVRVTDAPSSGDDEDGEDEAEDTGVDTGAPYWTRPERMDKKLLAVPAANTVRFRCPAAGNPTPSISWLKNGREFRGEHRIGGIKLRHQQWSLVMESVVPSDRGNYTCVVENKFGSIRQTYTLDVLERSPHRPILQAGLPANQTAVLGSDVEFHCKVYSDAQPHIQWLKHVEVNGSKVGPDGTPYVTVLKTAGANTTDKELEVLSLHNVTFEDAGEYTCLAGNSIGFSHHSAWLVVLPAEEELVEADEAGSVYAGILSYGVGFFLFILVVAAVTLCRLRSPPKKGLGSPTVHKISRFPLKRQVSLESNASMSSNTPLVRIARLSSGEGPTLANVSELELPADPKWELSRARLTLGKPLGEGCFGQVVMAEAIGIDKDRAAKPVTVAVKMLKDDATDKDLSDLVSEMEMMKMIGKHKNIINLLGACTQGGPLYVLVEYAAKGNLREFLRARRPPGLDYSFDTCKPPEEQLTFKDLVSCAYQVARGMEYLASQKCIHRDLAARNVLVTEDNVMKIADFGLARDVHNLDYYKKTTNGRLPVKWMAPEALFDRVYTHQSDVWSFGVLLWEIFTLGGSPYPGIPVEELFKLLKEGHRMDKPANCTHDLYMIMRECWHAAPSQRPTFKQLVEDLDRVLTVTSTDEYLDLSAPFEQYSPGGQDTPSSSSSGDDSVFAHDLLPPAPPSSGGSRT
Procedure, shortened: as §1

[4] = biological target: FGFR3 (V555M) (Homo sapiens (Human), UniProt P22607, V555M); settings: V555M mutant
FGFR3 (V555M), sequence (P22607 23-806 V555M): as the sequence (P22607 23-806) above, with V533M counted along it
Procedure, shortened: as §1

[5] = biological target: FGFR4 (Homo sapiens (Human), UniProt P22455)
FGFR4, sequence (P22455 22-802): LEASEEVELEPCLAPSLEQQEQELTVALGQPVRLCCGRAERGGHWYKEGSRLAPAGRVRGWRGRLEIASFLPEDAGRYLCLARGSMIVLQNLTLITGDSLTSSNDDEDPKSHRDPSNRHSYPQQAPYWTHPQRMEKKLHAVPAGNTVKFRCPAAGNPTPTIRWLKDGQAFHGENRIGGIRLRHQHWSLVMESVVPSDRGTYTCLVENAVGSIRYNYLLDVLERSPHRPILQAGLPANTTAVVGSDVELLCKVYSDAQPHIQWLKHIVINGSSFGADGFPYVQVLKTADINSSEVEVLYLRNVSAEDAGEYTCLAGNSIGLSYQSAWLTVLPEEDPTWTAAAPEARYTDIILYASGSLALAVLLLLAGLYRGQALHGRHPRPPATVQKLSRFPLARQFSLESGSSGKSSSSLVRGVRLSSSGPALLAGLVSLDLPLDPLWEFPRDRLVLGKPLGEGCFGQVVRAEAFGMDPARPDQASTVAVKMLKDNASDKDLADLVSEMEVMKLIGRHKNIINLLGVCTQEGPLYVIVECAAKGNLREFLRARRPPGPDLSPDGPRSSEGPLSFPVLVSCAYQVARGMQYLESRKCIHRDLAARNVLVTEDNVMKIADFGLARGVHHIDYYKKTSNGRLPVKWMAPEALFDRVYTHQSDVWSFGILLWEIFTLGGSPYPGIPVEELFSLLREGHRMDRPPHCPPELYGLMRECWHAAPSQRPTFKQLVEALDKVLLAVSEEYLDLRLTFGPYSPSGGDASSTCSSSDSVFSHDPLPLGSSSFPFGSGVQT
Procedure, shortened: as §1

FGFR1, sequence (P11362 22-822): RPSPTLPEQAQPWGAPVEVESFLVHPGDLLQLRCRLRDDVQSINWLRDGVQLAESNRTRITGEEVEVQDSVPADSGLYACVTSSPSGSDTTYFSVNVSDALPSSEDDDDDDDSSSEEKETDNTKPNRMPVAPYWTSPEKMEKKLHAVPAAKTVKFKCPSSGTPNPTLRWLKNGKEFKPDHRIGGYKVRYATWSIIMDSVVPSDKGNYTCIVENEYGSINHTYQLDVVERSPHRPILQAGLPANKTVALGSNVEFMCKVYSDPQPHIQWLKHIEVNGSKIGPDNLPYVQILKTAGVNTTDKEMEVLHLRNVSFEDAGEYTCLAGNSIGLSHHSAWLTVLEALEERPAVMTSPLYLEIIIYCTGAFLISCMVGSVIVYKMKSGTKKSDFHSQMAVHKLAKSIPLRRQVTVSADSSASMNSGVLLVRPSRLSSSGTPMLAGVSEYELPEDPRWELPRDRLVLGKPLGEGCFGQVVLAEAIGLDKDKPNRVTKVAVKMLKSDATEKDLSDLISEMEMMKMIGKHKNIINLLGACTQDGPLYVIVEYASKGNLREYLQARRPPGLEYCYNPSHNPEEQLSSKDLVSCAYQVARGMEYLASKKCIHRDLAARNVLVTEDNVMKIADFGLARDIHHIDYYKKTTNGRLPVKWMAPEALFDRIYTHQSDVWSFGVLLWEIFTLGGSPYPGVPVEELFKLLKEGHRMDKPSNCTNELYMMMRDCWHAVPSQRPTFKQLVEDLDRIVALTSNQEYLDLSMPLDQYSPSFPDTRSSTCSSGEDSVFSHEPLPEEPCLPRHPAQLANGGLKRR

Row | Kd [1] [nM] | Kd [2] [nM] | Kd [3] [nM] | Kd [4] [nM] | Kd [5] [nM] | Structure (SMILES)
1 | > 300 | > 300 | 100 to 300 | 20 to 100 | 1 to 20 | Cc1ncc(Cl)c([C@@H](C)Oc2ccc3[nH]nc(-c4cnc(N5CC(O)C5)c(C#N)c4)c3c2)c1Cl [Example 308, 5-[5-[(1R)-1-(3,5-dichloro-2-methyl-4-pyridyl)ethoxy]-1H-indazol-3-yl]-2-(3-hydroxyazetidin-1-yl)pyridine-3-carbonitrile]
2 | > 300 | > 300 | 100 to 300 | 20 to 100 | 1 to 20 | C[C@@H](Oc1ccc2[nH]nc(-c3cnc(N4CCC4)c(C#N)c3)c2c1)c1c(Cl)cncc1Cl [Example 309, 2-(azetidin-1-yl)-5-[5-[(1R)-1-(3,5-dichloro-4-pyridyl)ethoxy]-1H-indazol-3-yl]pyridine-3-carbonitrile]
3 | 1 to 20 | 1 to 20 | 1 to 20 | 1 to 20 | 1 to 20 | COc1cc2[nH]nc(-c3ccc(N4CCC4)nc3)c2cc1O[C@H](C)c1c(C)cnnc1C [Example 310, (R)-3-(6-(azetidin-1-yl)pyridin-3-yl)-5-(1-(3,5-dimethylpyridazin-4-yl)ethoxy)-6-methoxy-1H-indazole]
4 | 20 to 100 | 20 to 100 | 20 to 100 | 1 to 20 | 1 to 20 | COc1cc2[nH]nc(-c3cnc(N4CC[C@H](O)C4)c(C#N)c3)c2cc1O[C@H](C)c1c(C)cnnc1C [Example 311, 5-(5-((R)-1-(3,5-dimethylpyridazin-4-yl)ethoxy)-6-methoxy-1H-indazol-3-yl)-2-((S)-3-hydroxypyrrolidin-1-yl)nicotinonitrile]
5 | 100 to 300 | 20 to 100 | 20 to 100 | 1 to 20 | 1 to 20 | Cc1cnnc(C)c1[C@@H](C)Oc1ccc2[nH]nc(-c3cnc(N4CC[C@@H](O)C4)c(C#N)c3)c2c1 [Example 313, 5-(5-((R)-1-(3,5-dimethylpyridazin-4-yl)ethoxy)-1H-indazol-3-yl)-2-((R)-3-hydroxypyrrolidin-1-yl)nicotinonitrile]
6 | 1 to 20 | 1 to 20 | 1 to 20 | 1 to 20 | 1 to 20 | COc1cc2[nH]nc(-c3ccc(N4CCCC4)nc3)c2cc1O[C@H](C)c1c(C)cnnc1C [Example 315, (R)-5-(1-(3,5-dimethylpyridazin-4-yl)ethoxy)-6-methoxy-3-(6-(pyrrolidin-1-yl)pyridin-3-yl)-1H-indazole]
7 | 20 to 100 | 20 to 100 | 1 to 20 | 1 to 20 | 1 to 20 | COc1cc2[nH]nc(-c3cnc(N4CC[C@H](C(C)(C)O)C4)c(C#N)c3)c2cc1O[C@H](C)c1c(C)cnnc1C [Example 316, 5-(5-((R)-1-(3,5-dimethylpyridazin-4-yl)ethoxy)-6-methoxy-1H-indazol-3-yl)-2-((S)-3-(2-hydroxypropan-2-yl)pyrrolidin-1-yl)nicotinonitrile]
8 | 100 to 300 | 100 to 300 | 20 to 100 | 1 to 20 | 1 to 20 | Cc1cnnc(C)c1[C@@H](C)Oc1ccc2[nH]nc(-c3cnc(N4CC(O)C4)c(C#N)c3)c2c1 [Example 318, (R)-5-(5-(1-(3,5-dimethylpyridazin-4-yl)ethoxy)-1H-indazol-3-yl)-2-(3-hydroxyazetidin-1-yl)nicotinonitrile]
9 | 20 to 100 | 20 to 100 | 1 to 20 | 1 to 20 | 1 to 20 | COc1cc2[nH]nc(-c3cnc(N4CC[C@@H](O)C4)c(C#N)c3)c2cc1O[C@H](C)c1c(C)cnnc1C [Example 319, 5-(5-((R)-1-(3,5-dimethylpyridazin-4-yl)ethoxy)-6-methoxy-1H-indazol-3-yl)-2-((R)-3-hydroxypyrrolidin-1-yl)nicotinonitrile]
10 | 20 to 100 | 20 to 100 | 20 to 100 | 1 to 20 | 1 to 20 | COc1cc2[nH]nc(-c3cnc(N4CC(O)C4)c(C#N)c3)c2cc1O[C@H](C)c1c(C)cnnc1C [Example 320, (R)-5-(5-(1-(3,5-dimethylpyridazin-4-yl)ethoxy)-6-methoxy-1H-indazol-3-yl)-2-(3-hydroxyazetidin-1-yl)nicotinonitrile]
11 | 20 to 100 | 1 to 20 | 1 to 20 | 1 to 20 | 1 to 20 | COc1cc2[nH]nc(-c3cnc(N4CC[C@@H](C(C)(C)O)C4)c(C#N)c3)c2cc1O[C@H](C)c1c(C)cnnc1C [Example 321, 5-(5-((R)-1-(3,5-dimethylpyridazin-4-yl)ethoxy)-6-methoxy-1H-indazol-3-yl)-2-((R)-3-(2-hydroxypropan-2-yl)pyrrolidin-1-yl)nicotinonitrile]
12 | 100 to 300 | 20 to 100 | 20 to 100 | 1 to 20 | 1 to 20 | COc1cc2[nH]nc(-c3cnc(N4CCC4)c(C#N)c3)c2cc1O[C@H](C)c1c(C)cnnc1C [Example 322, (R)-2-(azetidin-1-yl)-5-(5-(1-(3,5-dimethylpyridazin-4-yl)ethoxy)-6-methoxy-1H-indazol-3-yl)nicotinonitrile]
13 | 20 to 100 | 20 to 100 | 20 to 100 | 1 to 20 | 1 to 20 | COc1cc2[nH]nc(-c3cnc(N4CC5(COC5)C4)c(C#N)c3)c2cc1O[C@H](C)c1c(C)cnnc1C [Example 324, (R)-5-(5-(1-(3,5-dimethylpyridazin-4-yl)ethoxy)-6-methoxy-1H-indazol-3-yl)-2-(2-oxa-6-azaspiro[3.3]heptan-6-yl)nicotinonitrile]
14 | 20 to 100 | 1 to 20 | 1 to 20 | 1 to 20 | 1 to 20 | Cc1cnnc(C)c1[C@@H](C)Oc1ccc2[nH]nc(-c3cnc(N4CCN5C(=O)NCC5C4)c(C#N)c3)c2c1 (stereo partly drawn) [Example 325, 5-(5-((R)-1-(3,5-dimethylpyridazin-4-yl)ethoxy)-1H-indazol-3-yl)-2-(3-oxohexahydroimidazo[1,5-a]pyrazin-7(1H)-yl)nicotinonitrile]
15 | 20 to 100 | 20 to 100 | 1 to 20 | 1 to 20 | 1 to 20 | COc1cc2[nH]nc(-c3cnc(N4CC(O)C4)c(C#N)c3)c2cc1O[C@H](C)c1c(Cl)cncc1Cl [Example 326, 5-[5-[(1R)-1-(3,5-dichloro-4-pyridyl)ethoxy]-6-methoxy-1H-indazol-3-yl]-2-(3-hydroxyazetidin-1-yl)pyridine-3-carbonitrile]
16 | 1 to 20 | 1 to 20 | 1 to 20 | 1 to 20 | 1 to 20 | COc1cc2[nH]nc(-c3cnc(N4CC[C@H](O)C4)c(C#N)c3)c2cc1O[C@H](C)c1c(Cl)cncc1Cl [Example 327, 5-[5-[(1R)-1-(3,5-dichloro-4-pyridyl)ethoxy]-6-methoxy-1H-indazol-3-yl]-2-[(3S)-3-hydroxypyrrolidin-1-yl]pyridine-3-carbonitrile]
17 | 100 to 300 | 100 to 300 | 100 to 300 | 20 to 100 | 1 to 20 | COc1cc(-c2n[nH]c3ccc(O[C@H](C)c4c(C)cnnc4C)cc23)cnc1N1CCN2C(=O)NCC2C1 (stereo partly drawn) [Example 328, 7-(5-(5-((R)-1-(3,5-dimethylpyridazin-4-yl)ethoxy)-1H-indazol-3-yl)-3-methoxypyridin-2-yl)hexahydroimidazo[1,5-a]pyrazin-3(2H)-one]
18 | 100 to 300 | > 300 | 20 to 100 | 1 to 20 | 1 to 20 | C[C@@H](Oc1ccc2[nH]nc(-c3cnc(N4CC5(CN(CC(F)(F)F)C5)C4)c(C#N)c3)c2c1)c1c(Cl)cncc1Cl [Example 329, (R)-5-(5-(1-(3,5-dichloropyridin-4-yl)ethoxy)-1H-indazol-3-yl)-2-(6-(2,2,2-trifluoroethyl)-2,6-diazaspiro[3.3]heptan-2-yl)nicotinonitrile]

Row | Structure (SMILES) | Kd [1] [nM] | Kd [2] [nM] | Kd [3] [nM] | Kd [4] [nM] | Kd [5] [nM]
19 | Cc1cnnc(C)c1[C@@H](C)Oc1ccc2[nH]nc(-c3cnc(N4CC5CC(C4)N5CC(C)(C)O)c(C#N)c3)c2c1 [Example 312, 5-(5-((R)-1-(3,5-dimethylpyridazin-4-yl)ethoxy)-1H-indazol-3-yl)-2-(6-(2-hydroxy-2-methylpropyl)-3,6-diazabicyclo[3.1.1]heptan-3-yl)nicotinonitrile] | 1 to 20 | 1 to 20 | 1 to 20 | 1 to 20 | 1 to 20
20 | COc1cc2[nH]nc(-c3ccc(N4CC5CC(C4)N5)nc3)c2cc1O[C@H](C)c1c(C)cnnc1C [Example 314, 3-(5-(5-((R)-1-(3,5-dimethylpyridazin-4-yl)ethoxy)-6-methoxy-1H-indazol-3-yl)pyridin-2-yl)-3,6-diazabicyclo[3.1.1]heptane] | 1 to 20 | 1 to 20 | 1 to 20 | 1 to 20 | 1 to 20
21 | COc1cc2[nH]nc(-c3cnc(N4CC5CC(C4)N5)c(C)c3)c2cc1O[C@H](C)c1c(C)cnnc1C [Example 317, 3-(5-(5-((R)-1-(3,5-dimethylpyridazin-4-yl)ethoxy)-6-methoxy-1H-indazol-3-yl)-3-methylpyridin-2-yl)-3,6-diazabicyclo[3.1.1]heptane] | 1 to 20 | 1 to 20 | 1 to 20 | 1 to 20 | 1 to 20
22 | COc1cc(-c2n[nH]c3ccc(O[C@H](C)c4c(C)cnnc4C)cc23)cnc1N1CC2CC(C1)N2CC(C)(C)O [Example 323, 1-(3-(5-(5-((R)-1-(3,5-dimethylpyridazin-4-yl)ethoxy)-1H-indazol-3-yl)-3-methoxypyridin-2-yl)-3,6-diazabicyclo[3.1.1]heptan-6-yl)-2-methylpropan-2-ol] | > 300 | > 300 | > 300 | 20 to 100 | 1 to 20
